# Assay results from US5362873A, “Tetrahydropyridine derivatives” (Shionogi & Co., Ltd., priority 1990, dated 1994).
# Key:
# DA2 receptor = target: T1, DA2 receptor (Rattus norvegicus, UniProt P61169); experiment: DA2 receptor binding ([3H]spiroperidol); settings: [3H]spiroperidol 0.2 nM, rat striatal tissue, pH 7.4, 37° C., 10 minutes
# T1 construct: receptor preparation (striatal tissue, 0.3 mg protein/ml); from tissue; host or cells: rat striatal membranes
# Protocol: (§1) After the decapitation of rats the objective tissues were rapidly removed and each was weighed. Each tissue was homogenized with twenty-fold amount of ice-cold 50 mM […] buffer (pH7.8) homogenized, and centrifuged at 40,000×g for 10 minutes. The supernatant was removed and pellets were then resuspended in the buffer and recentrifuged. The procedure is repeated 3 times. Then these obtained samples were freeze-dried in liquid nitrogen and preserved at -80° C. On the test day the sample was thawed at room temperature and centrifuged at 40,000×g for 10 minutes, the pellets were then suspended in an incubation buffer and used as the receptor preparation. The preparation was added to the mixture containing the labelled ligand and the test drug, and filtered through Whatman GF/C filters and washed to terminate the reaction. Radioactivity on the filters was determined by a liquid scintillation counter and Ki value was calculated.
# DA2 receptor binding was initiated by the addition of the receptor preparation (striatal tissue, 0.3 mg protein/ml) to a mixture containing 0.2 nM of [^3 H]spiroperidol and the test compound dissolved in 50 mM Tris-HCl buffer containing 100 mM-NaCl and 5 mM-KCl (pH 7.4). Incubation was carried out at 37° C. for 10 minutes. Specific DA2 receptor binding was defined as the difference in amount of [^3 H]spiroperidol bound to the tissue in the presence or the absence of 10 μM haloperidol.
# 5HT2 receptor = target: T2, 5HT2 receptor (Rattus norvegicus, UniProt P14842); experiment: 5HT2 receptor binding ([3H]spiroperidol); settings: [3H]spiroperidol 1 nM, rat cortex tissue, pH 7.4, 37° C., 15 minutes
# T2 construct: receptor preparation (cortex tissue, 0.5 mg protein/ml); from tissue; host or cells: rat cortex membranes
# T2 sequence (P14842 whole entry): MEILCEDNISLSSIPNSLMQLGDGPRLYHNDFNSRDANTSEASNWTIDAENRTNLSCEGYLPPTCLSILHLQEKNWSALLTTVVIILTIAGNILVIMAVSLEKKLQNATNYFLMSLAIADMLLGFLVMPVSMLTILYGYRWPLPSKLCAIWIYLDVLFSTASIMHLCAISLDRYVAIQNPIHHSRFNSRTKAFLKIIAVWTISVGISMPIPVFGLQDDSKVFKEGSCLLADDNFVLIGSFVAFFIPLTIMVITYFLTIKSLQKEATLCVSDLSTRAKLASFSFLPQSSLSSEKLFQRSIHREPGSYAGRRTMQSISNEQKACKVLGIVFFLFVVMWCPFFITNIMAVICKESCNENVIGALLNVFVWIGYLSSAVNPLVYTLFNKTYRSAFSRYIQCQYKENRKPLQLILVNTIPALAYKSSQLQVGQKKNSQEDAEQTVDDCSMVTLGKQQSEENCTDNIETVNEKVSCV
# Protocol: as §1
# 5HT2 receptor binding was initiated by the addition of the receptor preparation (cortex tissue, 0.5 mg protein/ml) to a mixture containing 1 nM of [^3 H]spiroperidol and the test compound dissolved in 50 mM Tris-HCl buffer (pH 7.4). Incubation was carried out at 37° C. for 15 minutes. Specific 5HT2 receptor binding was defined as the difference in amount of [^3 H]spiroperidol bound to the tissue in the presence or the absence of 1 mM serotonin.
# σ receptor = σ receptor binding ([3H]3PPP); settings: [3H]3PPP 5 nM, rat cortex tissue, pH 7.8, 25° C., 90 minutes
# Protocol: as §1
# Sigma receptor binding was initiated by the addition of the receptor preparation (cortex tissue, 0.7 mg protein/ml) to a mixture containing 5 nM of [^3 H]3PPP [3-hydroxyphenyl-N-(1-propyl)piperidine] and the test compound dissolved in 50 mM Tris-HCl buffer (pH 7.8). Incubation was carried out at 25° C. for 90 minutes. Specific sigma receptor binding was defined as the difference in amount of [^3 H]3PPP bound to the tissue in the presence or the absence of 10 μM haloperidol.
# PCP receptor = PCP receptor binding ([3H]TCP); settings: [3H]TCP 5 nM, rat cortex tissue, pH 7.8, 25° C., 30 minutes
# Protocol: as §1
# PCP receptor binding was initiated by the addition of the receptor preparation (cortex tissue, 0.2 mg protein/ml) to a mixture containing 5 nM of [^3 H]TCP and the test compound dissolved in 5 mM Tris-HCl buffer (pH 7.8). Incubation was carried out at 25° C. for 30 minutes. Specific PCP receptor binding was defined as the difference in amount of [^3 H]TCP bound to the tissue in the presence or the absence of 10 μM PCP.
# dopamine receptors = settings: prior art, in words; cited from earlier work
# σ receptors = settings: prior art, in words; cited from earlier work
# T1 sequence (P61169 whole entry): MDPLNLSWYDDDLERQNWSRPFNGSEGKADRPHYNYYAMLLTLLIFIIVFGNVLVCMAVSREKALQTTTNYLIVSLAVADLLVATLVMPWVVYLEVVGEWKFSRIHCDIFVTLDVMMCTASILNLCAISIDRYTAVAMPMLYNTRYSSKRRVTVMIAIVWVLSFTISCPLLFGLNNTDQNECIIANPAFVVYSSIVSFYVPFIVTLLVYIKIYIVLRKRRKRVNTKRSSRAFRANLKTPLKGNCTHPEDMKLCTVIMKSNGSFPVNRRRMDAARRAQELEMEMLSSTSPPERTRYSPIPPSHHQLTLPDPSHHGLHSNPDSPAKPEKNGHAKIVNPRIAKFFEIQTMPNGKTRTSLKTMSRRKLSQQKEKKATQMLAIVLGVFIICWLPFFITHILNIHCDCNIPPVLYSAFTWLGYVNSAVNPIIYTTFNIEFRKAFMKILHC
SMILES,Ki (DA2 receptor),Ki (5HT2 receptor),Ki (σ receptor),Ki (PCP receptor),affinity to dopamine receptors (dopamine receptors),affinity to σ receptors (σ receptors)
Cc1ccc(C2=CCN(CCCN3CCC(C)CC3)CC2)cc1 [I a-57],2400 nM,140 nM,6.3 nM,44000 nM,,
O=C1CCCN1C(=O)NCCCN1CC=C(c2ccc(C(F)(F)F)cc2)CC1 [I a-2],4700 nM,550 nM,4.1 nM,31000 nM,,
O=C(CCCN1CC=C(c2ccc(C(F)(F)F)cc2)CC1)N1CCCC1=O [I a-9],1600 nM,1200 nM,6.1 nM,33000 nM,,
CCCc1ccc(C2=CCN(CCCNC(=O)N3CCCC3=O)CC2)cc1 [I a-3],4000 nM,1700 nM,9.5 nM,15000 nM,,
"FC(F)(F)c1ccc(C2=CCN(CCCOc3ccc(Cl)c(Cl)c3)CC2)cc1 [I a-111, 1-{3-(3,4-Dichlorophenoxy)propyl}-4-(4-trifluoromethylphenyl)-1,2,5,6-tetrahydropyridine]",630 nM,390 nM,2.9 nM,> 63000 nM,,
OC(CCCN1CCN(c2ncc(F)cn2)CC1)c1ccc(F)cc1 (centres unmarked) [BMY 148021],,,,,low affinity,high affinity
"CNCCCN1CC=C(c2ccc(C(C)(C)C)cc2)CC1 [I a-30, 1-[(3-methylamino)propyl]-4-(4-tert-butylphenyl)-1,2,5,6-tetrahydropyridine]",2000 nM,3700 nM,1.3 nM,> 63000 nM,,
CC(C)(C)c1ccc(C2=CCN(CCCNC(=O)N3CCCC3=O)CC2)cc1 [I a-6],2200 nM,2500 nM,2.7 nM,49000 nM,,
Cc1ccc(C2=CCN(CCCN(CC(C)C)CC(C)C)CC2)cc1 [I a-24],1100 nM,380 nM,5.8 nM,32000 nM,,
CC(C)(C)c1ccc(C2=CCN(CCCN3CCSCC3)CC2)cc1 [I a-94],1400 nM,1900 nM,1.3 nM,27000 nM,,
Cc1ccc(C2=CCN(CCCN3CCOCC3)CC2)cc1 [I a-101],1800 nM,7700 nM,0.31 nM,> 63000 nM,,
CC(C)(C)c1ccc(C2=CCN(CCCC(=O)N3CCCC3=O)CC2)cc1 [I a-8],1200 nM,2900 nM,1.3 nM,> 62000 nM,,
O=C1CCCN1C(=O)NCCCCCN1CC=C(c2ccc(C(F)(F)F)cc2)CC1 [I a-13],320 nM,770 nM,2.2 nM,26000 nM,,
Clc1ccc(C2=CCN(CCCN3CCOCC3)CC2)cc1 [I a-102],3200 nM,5700 nM,0.71 nM,> 71000 nM,,
C[C@@H]1CN(CCCn2c3ccccc3c3ccccc32)C[C@H](C)N1 [rimcazole],,,,,low affinity,high affinity
"CC(C)(C)c1ccc(C2=CCN(CCCN3CCOCC3)CC2)cc1 [I a-35, 4-[3-{4-(4-tert-butylphenyl)-1,2,5,6-tetrahydropyridin-1-yl}propyl]morpholine]",4600 nM,3200 nM,1.8 nM,18000 nM,,
CC1CCN(CCCN2CC=C(c3ccc(C(C)(C)C)cc3)CC2)CC1 [I a-56],4500 nM,8900 nM,6.5 nM,44000 nM,,
CC(C)(C)c1ccc(C2=CCN(CCCNC(=O)N3CCCC3)CC2)cc1 [I a-11],4500 nM,4400 nM,2.6 nM,23000 nM,,
